Several values for one entry are separate records, joined by “and”; a condition that tells them apart may be missing. Equal values may be shown once. Read-outs that look alike come from different tables or passages of the source.
Legend:
[1] = tested on: fouling; experiment: Anti-fouling panel exposure in the ocean at Daytona Beach, rating 0 to 10; conditions: for General Rating, 1 Mo. / General Rating, 4 Mos. / General Rating, 6 Mos.: Example 15, Table 7, agent as is
Excerpt: Test panels were 15.24 cm×30.48 cm (6 in×12 in) in dimension and were constructed of a white plastic top surface and a black plastic bottom surface. The test panels were coated on both sides with the two formulations above-tabulated at a film thickness of about 5 mils dry. The test panels then were exposed horizontally with the white surface upward and the black surface downward in the ocean at Daytona Beach, Fla., U.S.A. A control panel consisted of 12 wt-% triphenyl tin hydroxide dispersed in a resinous vinyl binder (80 wt-parts of a vinyl chloride polymer, VAGH brand, Union Carbide Corporation, New York, N.Y.) reduced in methyl ethyl ketone solvent to 50% solids content. After exposure, the control and test panels were inspected and assigned a numerical rating from 0 to 10 based on the amount of surface area of the panel that was free from fouling, a rating of "10" corresponding to perfect protection. The following results were recorded.

[2] = tested on: rats; conditions: oral; cited from earlier work
[3] = tested on: rats or mice; conditions: cited from earlier work
[4] = tested on: mammalian; conditions: in words; cited from earlier work
[5] = tested on: fish; conditions: in words; cited from earlier work
[6] = SEM / Energy Dispersion Spectroscopy analysis of cured epoxy resin; format: physicochemical; conditions: Example 16, Sample 2 (FIG. 2); EDS
Excerpt: An epoxy resin system was examined for its ability to be modified so as to preferentially influence the concentration or location of an anti-fouling agent (Nopocide N-96, see Example 1) within its structure. A direct comparison was made between an epoxy resin (EPON 828 epoxy resin, diglycidyl ether of bis-phenol A, Shell Chemical Company) and the same epoxy resin containing a domain structuring polymeric material, such as a polysulfide resin (LP-32 polysulfide resin, Thiokol Corporation). Both systems contained the same anti-fouling agent. The compositions formulated are set forth below: […]

[7] = Example 12, Table 4, additive at 20 wt-%
[8] = Example 13, Table 5, additive at 20 wt-%
[9] = Example 10, 20 wt-% in Control Paint, 10 is perfect protection
[10] = Example 14, Table 6, additive at 20 wt-%
[11] = listed as 2,3-Dichloro-1,4-Naphthaquinone
[12] = Example 11, Table 3, additive at 20 wt-%, 10 is perfect protection

**Q.** What does the source list for `OB(O)O` [boric acid]?
**A.** anti-fouling activity ([1]; in words): quite active as an anti-fouling agent; LD50 value [2]: 3,000 mg/kg

**Q.** For `O=C1OC(=O)C2C1C1(Cl)C(Cl)=C(Cl)C2(Cl)C1(Cl)Cl` (centres unmarked) [1,4,5,6,7,7-hexachloro-5-norborene-2,3-dicarboxylic anhydride], which “Rating After Exposure, 4 Months” value [1, 7] is on record?
**A.** Its value is 0.

**Q.** For `C=CCC1=C(C)C(OC(=O)[C@@H]2[C@@H](C=C(C)C)C2(C)C)CC1=O` (stereo partly drawn) [d-Trans-Allerthrin], which “Rating After Exposure, 1 Months” value [1, 8] is on record?
**A.** Its value is 0-1.

**Q.** And the “Rating After Exposure, 4 Months” value [1, 8]?
**A.** The value was 0.

**Q.** What does the source list for `N#Cc1c(Cl)c(Cl)c(Cl)c(Cl)c1C#N` [Nopocide, 1,2-dicyano, tetrachlorobenzene]?
**A.** Rating After Exposure, 4 Months [1, 9]: 0; Rating After Exposure, 462 Days [1, 9]: 0

**Q.** For `NC(=O)Cc1cccc2ccccc12` [napthalene acetamide], which LD50 value ([3]; in vivo, po) is on record?
**A.** The LD50 value was 1,000.

**Q.** Which LD50 value ([3]; species not given, in mg/kg) does the source give for `C#CCOS(=O)OC1CCCCC1Oc1ccc(C(C)(C)C)cc1` (centres unmarked) [dimethylethylphenoxy-cyclohexyl-2-propynyl sulfite] here?
**A.** The LD50 value was 2,200.

**Q.** Which results are given for `CN(C)C(=O)Nc1ccc(Cl)c(Cl)c1` [3-(3,4-Dichlorophenyl)-1,1-dimethyl urea]?
**A.** Rating After Exposure, 1 Months [1, 10]: 9; Rating After Exposure, 4 Months [1, 10]: 0

**Q.** With `Oc1ccccc1-c1ccccc1` [o-phenylphenol] as the compound, how does the LD50 value ([3]; species not given, in mg/kg) read?
**A.** The LD50 value was 2,700.

**Q.** For `C=CCc1ccc(O)c(OC)c1` [Eugenol, 4-allyl-2-methoxyphenol], which “General Rating, 1 Mo.” value [1] is on record?
**A.** Its value is 9 and 7.

**Q.** What about the “General Rating, 4 Mos.” value [1] of the same compound?
**A.** The value was 3.

**Q.** What about the “General Rating, 6 Mos.” value [1] of the same compound?
**A.** The value was 0.

**Q.** And the LD50 value [2]?
**A.** The LD50 value was 2,000 mg/kg.

**Q.** What does the source list for `O=C(Nc1cccc2c(NC(=O)n3ccnc3)cccc12)n1ccnc1`?
**A.** Rating After Exposure, 1 Months [1, 10]: 6-7; Rating After Exposure, 4 Months [1, 10]: 0

**Q.** For `CCN(CC)c1nc(C)cc(OP(=S)(OC)OC)n1` [methyl, diethylamino, dimethoxythiophosphate derivative of pyrimidine], which LD50 value [2] is on record?
**A.** Its LD50 value is 2,000 mg/kg.

**Q.** For `O=C(O)Cc1c(Cl)ccc(Cl)c1Cl` [trichlorophenyl acetic acid], which LD50 value ([3]; species not given, in mg/kg) is on record?
**A.** Its LD50 value is 1,780.

**Q.** With `c1ccc(Nc2ccccc2)cc1` [diphenylamine] as the compound, how does the “General Rating, 1 Mo.” value [1] read?
**A.** Its value is 5.

**Q.** And the “General Rating, 6 Mos.” value [1]?
**A.** The value was 0.

**Q.** What about the “General Rating, 4 Mos.” value ([1]; listed as Diphenylanaline) of the same compound?
**A.** The value was 4 and 3.

**Q.** And the mammalian toxicity [4]?
**A.** The mammalian toxicity was “Low mammalian toxicity”.

**Q.** Which LD50 value ([3]; species not given, in mg/kg) does the source give for `CCCCCCCCCCCCNC(=N)N` [dodecylguanidine monoacetate] here?
**A.** The LD50 value was 1,000.

**Q.** For `CCCCCCCCCCCCCCCC[n+]1ccccc1` [cetylpyridinium chloride], which LD50 value [2] is on record?
**A.** The LD50 value was 200 mg/kg.

**Q.** Which LD50 value ([3]; in vivo, po) does the source give for `CC(C)C(C(=O)OC(C#N)c1cccc(Oc2ccccc2)c1)c1ccc(Cl)cc1` (centres unmarked) [diphenyl ether, chlorophenyl derivative of the isobutyric acid ester of hydroxyacetonitrile] here?
**A.** The LD50 value was 451.

**Q.** And the toxicity to fish [5]?
**A.** Its toxicity to fish is “toxic to fish”.

**Q.** Which “Rating After Exposure, 1 Months” value [1, 8] does the source give for `C#CC(C)(C)NC(=O)c1cc(Cl)cc(Cl)c1` [Pronamide, 3,5-dichloro-N-(3,3-dimethylpropyne)benzamide] here?
**A.** Its value is 0.

**Q.** And the “Rating After Exposure, 4 Months” value [1, 8]?
**A.** The value was 0.

**Q.** Which “Rating After Exposure, 4 Months” value [1, 7] does the source give for `c1ccc2c(c1)Nc1ccccc1S2` [Phenothiazine] here?
**A.** Its value is 0.

**Q.** Which LD50 value ([3]; in vivo, po) does the source give for `Nc1cc(Cl)cc(C(=O)O)c1Cl` [2,5-dichloro,3-amino benzoic acid] here?
**A.** Its LD50 value is 5,620.

**Q.** For `O=C(O)CNCP(=O)(O)O` [aminoacetic acid derivative of methylphosphonate], which LD50 value ([3]; species not given, in mg/kg) is on record?
**A.** The LD50 value was 4,300.

**Q.** With `Nc1cnn(-c2ccccc2)c(=O)c1Cl` [amino, chloro, phenyl derivative of azacyclohexamine] as the compound, how does the LD50 value ([3]; species not given, in mg/kg) read?
**A.** The LD50 value was 3,030.

**Q.** With `C=CCC1=C(C)C(OC(=O)C2C(C=C(C)C)C2(C)C)CC1=O` (centres unmarked) [allyl, methylhydroxy substituted cyclopententone ester of dimethylpropenyl cyclopropane carboxylic acid] as the compound, how does the LD50 value ([3]; species not given, in mg/kg) read?
**A.** Its LD50 value is 1,000.

**Q.** For `C=CCN(CC=C)C(=O)CCl` [2-chloro-N,N-diallylacetamide], which “General Rating, 1 Mo.” value [1] is on record?
**A.** Its value is 5.

**Q.** What about the “General Rating, 4 Mos.” value [1] of the same compound?
**A.** Its value is 4.

**Q.** And the “General Rating, 6 Mos.” value [1]?
**A.** Its value is 0.

**Q.** What about the LD50 value ([3]; species not given, in mg/kg) of the same compound?
**A.** Its LD50 value is 750.

**Q.** And the LD50 value [2]?
**A.** Its LD50 value is 700 mg/kg.

**Q.** With `C=C(Cl)CSC(=S)N(CC)CC` [2-chloro-2-propenyl diethylcarbamodithioate] as the compound, how does the LD50 value ([3]; in vivo, po) read?
**A.** The LD50 value was 850.

**Q.** For `CCOC(=O)C(O)(c1ccc(Cl)cc1)c1ccc(Cl)cc1` [ethyl 4-chloro-alpha(4-chlorophenyl)alpha-hydroxy benzene acetate], which LD50 value [2] is on record?
**A.** Its LD50 value is 5,000 mg/kg.

**Q.** With `CCCCCCCCCCCCCCCC[N+](C)(C)C.[Br-]` [cetyltrimethylammonium bromide] as the compound, how does the LD50 value [2] read?
**A.** The LD50 value was 500 mg/kg.

**Q.** For `O=C1C(Cl)=C(Cl)C(=O)c2ccccc21` [2,3-dichloro-1,4-napthoquinone], which “General Rating, 6 Mos.” value [1] is on record?
**A.** Its value is 0.

**Q.** What about the “General Rating, 1 Mo.” value [1, 11] of the same compound?
**A.** Its value is 7 and 5.

**Q.** And the “General Rating, 4 Mos.” value [1, 11]?
**A.** The value was 6 and 3.

**Q.** With `COP(=S)(OC)Oc1ccc(Sc2ccc(OP(=S)(OC)OC)cc2)cc1` [dimethoxythiophosphate derivative of diphenyl sulfide] as the compound, how does the LD50 value [2] read?
**A.** The LD50 value was 2030 mg/kg.

**Q.** What does the source list for `Nc1cc(Cl)ccc1Cl` [2,5-Dichloroaniline]?
**A.** Rating After Exposure, 4 Months [1, 12]: 0; Rating After Exposure, 462 Days [1, 12]: 0

**Q.** For `Oc1c(Cl)cc(Cl)c(Cl)c1Cc1c(O)c(Cl)cc(Cl)c1Cl` [hexachlorophene], which “chlorine concentration in round island domains” value [6] is on record?
**A.** Its value is 48%.

**Q.** What about the “chlorine concentration in sea-like domains” value [6] of the same compound?
**A.** The value was 36%.

**Q.** For `Nc1c(Cl)cc([N+](=O)[O-])cc1Cl` [2,-6-dichloro, 4-nitroaniline], which “Rating After Exposure, 4 Months” value [1, 12] is on record?
**A.** The value was 0.

**Q.** What about the “Rating After Exposure, 462 Days” value [1, 12] of the same compound?
**A.** Its value is 0.

**Q.** For `CCNc1nc(Cl)nc(NC(C)C)n1` [2-isopropylamino-4-chloro-6-ethylamino triazine], which LD50 value [2] is on record?
**A.** Its LD50 value is 1869 mg/kg.

**Q.** Which “Rating After Exposure, 4 Months” value [1, 12] does the source give for `Nc1ccc(Cl)c(Cl)c1` [3,4-Dichloroaniline] here?
**A.** Its value is 0.

**Q.** What about the “Rating After Exposure, 462 Days” value [1, 12] of the same compound?
**A.** The value was 0.

Source: patent US5441743A, “Marine compositions bearing preferentially concentrated domains of non-tin, organo anti-fouling agents” (priority 1993, dated 1995)
